Results from PubChem BioAssay (NCI).
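Test compounds were applied to cells in 96-well plates for 48 hours at 5 doses. The concentration for 50% growth inhibition is given as GI50. TGI denotes the concentration required for complete inhibition of growth.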

How the values were obtained:
Assay in all cases: NCI tumour cell line growth inhibition, 48 h
[1] = system: 786-0 renal
[2] = system: CCRF-CEM leukemia
[3] = system: DU-145 prostate
[4] = system: HCC-2998 colon
[5] = system: K-562 leukemia
[6] = system: MALME-3M melanoma
[7] = system: NCI-H460 lung
[8] = system: SF-268 CNS
[9] = system: SK-MEL-28 melanoma
[10] = system: UACC-257 melanoma

Compound	GI50 [1] [µM]	TGI [1] [µM]	GI50 [2] [µM]	TGI [2] [µM]	GI50 [3] [µM]	TGI [3] [µM]	GI50 [4] [µM]	TGI [4] [µM]	GI50 [5] [µM]	TGI [5] [µM]	GI50 [6] [µM]	TGI [6] [µM]	GI50 [7] [µM]	TGI [7] [µM]	GI50 [8] [µM]	TGI [8] [µM]	GI50 [9] [µM]	TGI [9] [µM]	GI50 [10] [µM]	TGI [10] [µM]
O=C(CN(/C=C/C(=O)C(F)(F)F)c1ccccc1)c1ccc(Cl)cc1	15.3	29.1	21	49.9	37.7	> 100	14.7	28.5	20.9	53.2	18.1	40.7	16.1	38.2	18.9	38.8	20.7	44.6	19.9	45.9
CCn1c(=N)sc2nc3ccccc3n2c1=O	–	> 100	–	> 100	–	> 100	–	> 100	–	> 100	–	> 100	–	> 100	–	> 100	–	> 100	–	> 100
COc1cc(CN(c2ccc(C)cc2)C2OC(=O)c3ccccc32)cc(OC)c1OC (stereo not drawn)	0.691	> 100	0.375	> 100	0.491	> 76.6	0.877	> 31.2	0.365	> 100	–	> 100	0.453	> 100	1.97	> 100	0.855	> 100	3.41	> 100
Nc1nc2c(ccc3ccccc32)s1	> 100	> 100	48.1	> 100	> 100	> 100	50.6	> 100	91.5	> 100	61.9	> 100	> 100	> 100	33.2	> 100	> 100	> 100	> 100	> 100
Nc1ccc(-c2ccc3ncc4ccc(=O)n(-c5cccc(C(F)(F)F)c5)c4c3c2)cn1	< 0.01	0.423	< 0.01	1.93	< 0.01	30.8	< 0.0118	1.6	< 0.014	> 43.2	< 0.01	0.0315	< 0.01	3.18	< 0.0104	4.61	< 0.01	11.5	< 0.01	0.0708
CC1=C(C#N)C(/C=C(\Cl)c2ccc(F)cc2)C(C#N)=C(C)N1	> 100	> 100	> 100	> 100	> 100	> 100	> 100	> 100	> 100	> 100	> 100	> 100	> 100	> 100	> 100	> 100	> 100	> 100	> 100	> 100
CC(C)=C1CCC(CN2CCOCC2)C1=O (stereo not drawn)	–	11.2	–	7.9	–	30.4	–	29.3	–	6.33	–	7	–	59	–	45	–	29.1	–	32.5
CC[C@@H](O)C[C@H]1CCC[C@@]2(C[C@@H]3OC(=O)/C=C/[C@@](C)(O)[C@@H](O)[C@H](C)[C@@H](O)[C@H](OC4CCC(N(C)C)C(C)O4)[C@@H](O)[C@](C)(O)CCCCC/C=C/[C@@H]4CC(C)(C)O[C@@]4(O)C[C@H](O2)[C@H]3C)O1 (stereo partly drawn)	–	34.1	–	> 100	–	24.1	–	17.5	–	21.5	–	15.5	–	46.8	–	35.2	–	36.8	–	4.82
CCN(CC)c1ccc(/C=N/NC(=O)CSc2nc3ccccc3c(=O)n2Cc2ccc(S(N)(=O)=O)cc2)c(O)c1	1.84	> 100	0.196	> 100	0.944	> 100	0.882	> 100	0.592	> 100	1.09	> 100	0.425	> 100	0.766	> 100	1.62	> 100	3.03	> 100
C=C1C(=O)O[C@H]2[C@H]1CC/C(COC(=O)NCCc1cccc(OC)c1)=C\CC[C@@]1(C)O[C@@H]21	1.37	3.07	0.34	1.93	0.892	2.16	1.68	3.29	0.613	6.25	1.84	3.61	3.94	16.6	1.78	4.91	1.35	3.3	1.53	3.4
COc1ccc2c(c1)O/C(=C\c1cccc(OCC(=O)Nc3nc(C)c(C)s3)c1)C2=O	0.715	2.08	0.312	3.07	0.189	0.404	9.43	> 100	2.65	–	1.8	3.92	11.6	> 100	0.638	1.4	20.9	> 100	> 100	> 100
COc1ccc2nc3cccc([N+](=O)[O-])c3c(NCCNCCN(C)C)c2c1	0.0429	0.164	0.0384	0.29	0.0374	0.909	0.0269	0.115	0.0222	0.0987	0.205	0.538	0.0253	0.0967	0.161	0.715	0.62	3.09	0.24	0.604
CCc1nn2ncccc2c1-c1ccnc(NC2CC2)n1	> 25	> 25	> 25	> 25	> 25	> 25	> 25	> 25	> 25	> 25	> 25	> 25	> 25	> 25	> 25	> 25	> 25	> 25	> 25	> 25
O=C1Nc2ccccc2/C1=C/c1cn(CC(O)Cn2cc(/C=C3\C(=O)Nc4ccccc43)c3ccccc32)c2ccccc12 (stereo not drawn)	1.67	3.21	2.84	13.4	1.55	2.95	2.28	5.21	1.19	3.56	1.51	3.26	0.488	1.88	1.75	3.92	1.77	3.5	2.35	4.44
